Experimental data taken from patent publication US10577366B2, “Crystalline forms of a compound that inhibits bromodomain” (Plexxikon Inc., priority 2017, dated 2020).
“Also recorded” adds a separate entry of the source. One block for each compound: values may come before it.

How the values were obtained:
Format in all cases: physicochemical
[1] = Solid form conversion on heating (XRPD / DSC)
Method: For XRPD analyses provided herein, a PANalytical Empyrean X-ray powder diffract meter was used, and the XRPD parameters used are summarized in Table 1.
DSC was performed using a TA Q200/Q2000 DSC from TA Instruments. TGA data were collected using a TA Q500/Q5000 TGA from TA Instruments. […]
Compound I Form C was prepared via anti-solvent addition in acetone/n-heptane at RT. […] (peak temperature) followed by two endotherms at 232.8° C. and 265.7° C. (onset temperature). […] It is also contemplated that Form C may be an anhydrate based on the characterization results. […]

[2] = Dynamic vapor sorption (DVS) isotherm, solid form stability as a function of humidity; details: for Water uptake: DVS at 25° C., up to 80% RH, solids pre-dried at 0% RH; for Form change after DVS test according to XRPD: after DVS at 25° C., 0% RH to 95% RH
Method: DVS was measured via a SMS (Surface Measurement Systems) DVS Intrinsic. The relative humidity at 25° C. were calibrated against deliquescence point of LiCl, Mg(NO3)2 and KCl.
DVS isotherm plot was collected at 25° C. to investigate the solid form stability as a function of humidity for Form A. Solids were pre-dried at 0% RH to remove surface solvent or water before DVS.
DVS isotherm plot was collected at 25° C. to investigate the solid form stability as a function of humidity for Form C. Solids were pre-dried at 0% RH to remove surface solvent or water before DVS. Water uptake of 0.6% was observed up to 80% RH (FIG. 9).

[3] = Slurry turnover between forms in ACN at various temperatures; details: for Solid form after slurry turnover (XRPD): 1:1 mass mixture with Form A in ACN
Method: The conversion relationship between anhydrous Compound I Form A and Compound I Form C was investigated via slurry turnover at various temperatures (RT (25±3° C.) or 50° C.) as follows.
(§1) About 5 mg of Compound I Form A was added to 1.0 mL of ACN, and the suspension was stirred at 50° C. for 2 hours to reach equilibrium. The suspension was filtered into a vial, which included 5 mg of Compound I Form A and Compound I Form C (mass ratio of 1:1). The mixture was stirred at a desired temperature for 4 days, and the solids were then analyzed by XRPD and DSC.
The conversion relationship between anhydrate Compound I Form A and Compound I Form E was investigated via slurry turnover at various temperatures (RT (25±3° C.) or 50° C.) and water activities as follows.
as §1, with “For various temperatures: About” for “About”, “included 2” for “included 5”, “Form E” for “Form C”, “by XRPD.” for “by XRPD and DSC.”

[4] = Slurry turnover between Form A and E at various water activities; details: 21 days, XRPD
Method: For various water activities: About 10 mg of Compound I Form A was added to 1.0 mL EtOH/H2O with different aw (Table 12), and the suspension was stirred at RT for 1 hour to reach equilibrium. The suspension was filtered into a vial, which included 2 mg of Compound I Form A and Compound I Form E (mass ratio of 1:1). The mixture was stirred at the desired aw for 21 days, and the solids were then analyzed by XRPD.

[5] = stirred 4 days at RT (25±3° C.)

SMILES: Cc1noc(C)c1-c1cnc2c(-c3ccc(C(=O)O)cc3)cn(C(C)(c3ccccn3)c3ccccn3)c2c1 [Form B, 4-(1-(1,1-di(pyridin-2-yl)ethyl)-6-(3,5-dimethylisoxazol-4-yl)-1H-pyrrolo[3,2-b]pyridin-3-yl)benzoic acid]
Solid form after heating (XRPD) ([1]; after heating to 110° C.): converted to Form A

SMILES: Cc1noc(C)c1-c1cnc2c(-c3ccc(C(=O)O)cc3)cn(C(C)(c3ccccn3)c3ccccn3)c2c1 [Form C, 4-(1-(1,1-di(pyridin-2-yl)ethyl)-6-(3,5-dimethylisoxazol-4-yl)-1H-pyrrolo[3,2-b]pyridin-3-yl)benzoic acid]
Water uptake [2]: 0.6%
Form change after DVS test according to XRPD [2]: Phase transition of Form C to Form A
Solid form after heating (XRPD/DSC) ([1]; after heating above the exothermic peak (174.5° C., peak temperature)): completely converted to Form A; also recorded: convert to Form A
Solid form after slurry turnover (XRPD) ([3]; stirred 4 days at 50° C.): converted to Form A
Solid form after slurry turnover (XRPD) [3, 5]: converted to Form A

SMILES: Cc1noc(C)c1-c1cnc2c(-c3ccc(C(=O)O)cc3)cn(C(C)(c3ccccn3)c3ccccn3)c2c1 [Form A, 4-(1-(1,1-di(pyridin-2-yl)ethyl)-6-(3,5-dimethylisoxazol-4-yl)-1H-pyrrolo[3,2-b]pyridin-3-yl)benzoic acid]
Water uptake [2]: 0.5%
Form change after DVS test according to XRPD [2]: No form change
Hygroscopicity ([2]; judged from DVS water uptake up to 80% RH at 25° C.): slightly hygroscopic
Relative stability of Form A versus Form C ([1]; based on the Burger-Ramberger Rules, before melting): monotropically more stable than Form C
Stability relationship between Form A and Form C ([3]; from slurry turnover at RT and 50° C. and DSC, monotropic): more stable

Further lines, results first:

Solid form after heating (XRPD) ([1]; after heating to 150° C.): converted to Form A
Solid form after slurry turnover (XRPD) ([3]; stirred 4 days at 50° C.): converted to Form A
Solid form after slurry turnover (XRPD) [3, 5]: converted to Form A
Final Form ([4]; Aw 0.298 (EtOH/H2O 952:48 v/v)): converted to Form A
Final Form ([4]; Aw 0.605 (EtOH/H2O 855:145 v/v)): converted to Form A
Final Form ([4]; Aw 0.900 (EtOH/H2O 450:550 v/v)): converted to Form A
SMILES: Cc1noc(C)c1-c1cnc2c(-c3ccc(C(=O)O)cc3)cn(C(C)(c3ccccn3)c3ccccn3)c2c1 [Form E, 4-(1-(1,1-di(pyridin-2-yl)ethyl)-6-(3,5-dimethylisoxazol-4-yl)-1H-pyrrolo[3,2-b]pyridin-3-yl)benzoic acid]

Solid form after heating (XRPD) ([1]; after heating to 145° C. and cooling to ambient conditions): converted to Form C
SMILES: Cc1noc(C)c1-c1cnc2c(-c3ccc(C(=O)O)cc3)cn(C(C)(c3ccccn3)c3ccccn3)c2c1 [Form D, 4-(1-(1,1-di(pyridin-2-yl)ethyl)-6-(3,5-dimethylisoxazol-4-yl)-1H-pyrrolo[3,2-b]pyridin-3-yl)benzoic acid]
